Measurements as given in patent US20240209028A1, “CNP COMPOUNDS” (priority 2022, published 2024).
Starred links: 1 amine or outer side, 2 acyl side, 3 side chain; linkers in the order of their positions; H or OH if unused. Positions of bridges follow the written chain, without caps; N, C: chain ends. Residues, ends and D or L forms follow the SMILES beside them. *: point of attachment. C18 diacid = O=C(O)CCCCCCCCCCCCCCCCC(=O)*; γGlu = O=C(O)[C@H](CCC(=O)[*:2])N[*:1]; AEEA = NCCOCCOCC(=O)O

How the values were obtained:
[1] = target: T1, human natriuretic peptide receptor 2 (hNPR2) (Homo sapiens, UniProt P20594); assay: In vitro hNPR2 activity assay (cGMP GloSensor reporter, HEK293); assay type: cell-based; settings: potency relative to CNP22 (0065)
T1 construct: expressed in transfected cells; host or cells: HEK293 (ATCC CRL-1573), clone 35, co-transfected with pGloSensor-42F
T1 sequence (P20594 23-1047): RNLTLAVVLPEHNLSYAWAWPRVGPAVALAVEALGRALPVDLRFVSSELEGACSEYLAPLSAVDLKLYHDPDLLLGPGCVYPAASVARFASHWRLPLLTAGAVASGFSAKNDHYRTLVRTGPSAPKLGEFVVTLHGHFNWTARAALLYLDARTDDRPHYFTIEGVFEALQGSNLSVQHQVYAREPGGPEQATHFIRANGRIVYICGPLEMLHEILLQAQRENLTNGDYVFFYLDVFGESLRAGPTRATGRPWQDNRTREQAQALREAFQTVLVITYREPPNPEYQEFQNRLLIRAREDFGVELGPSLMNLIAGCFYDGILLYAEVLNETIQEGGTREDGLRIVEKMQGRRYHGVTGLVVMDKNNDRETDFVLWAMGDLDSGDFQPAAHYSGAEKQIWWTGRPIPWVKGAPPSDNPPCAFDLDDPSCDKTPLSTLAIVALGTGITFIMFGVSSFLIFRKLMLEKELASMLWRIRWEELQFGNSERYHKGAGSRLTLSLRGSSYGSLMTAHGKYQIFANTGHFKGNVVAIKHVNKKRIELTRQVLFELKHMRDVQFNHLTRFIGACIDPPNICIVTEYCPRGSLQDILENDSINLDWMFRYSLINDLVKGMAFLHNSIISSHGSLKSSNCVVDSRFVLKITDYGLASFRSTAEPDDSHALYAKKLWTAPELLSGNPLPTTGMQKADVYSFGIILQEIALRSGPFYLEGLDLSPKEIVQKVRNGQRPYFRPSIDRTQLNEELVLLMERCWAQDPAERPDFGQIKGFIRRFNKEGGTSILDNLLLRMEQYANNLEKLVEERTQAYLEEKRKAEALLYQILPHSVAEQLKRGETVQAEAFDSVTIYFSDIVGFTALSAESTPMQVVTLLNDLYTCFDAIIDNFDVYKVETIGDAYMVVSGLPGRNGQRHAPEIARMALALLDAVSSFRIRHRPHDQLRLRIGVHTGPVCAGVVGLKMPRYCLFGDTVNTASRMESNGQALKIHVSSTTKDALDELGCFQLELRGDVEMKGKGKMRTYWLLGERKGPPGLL
In short: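 Potency is the EC50 from a four-parameter logistic fit, also expressed relative to the in-plate CNP22 control (×100), with at least two replicates. Compounds (ten concentrations, […], HSA-free diluent with 1% OVA, 0.01% Tween20) were incubated 30 min at 37 °C on HEK293 cells co-expressing hNPR2 and a GloSensor cGMP luciferase. Luminescence detected with Bright-Glo.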

[2] = High-Molecular-Weight-Protein (HMWP) formation by SEC-UPLC; assay type: physicochemical; settings: increase over two weeks at 37° C.
In short: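 Formulations at pH 4.0 or 6.5 incubated quiescently for two weeks at 37 °C; HMWP (peaks eluting before monomer, % of total peptide area) measured by SEC-UPLC, pH 2.4 mobile phase with 50% isopropanol, 50 °C, UV 215 nm. Value is HMWP increase, normalized to two weeks if needed.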

SMILES	hNPR2 0% HSA. [EC50% rel CNP] [1]	2-Week HMWP formation at pH 6.5 (%), % relative to total peak area [2]	2-Week HMWP formation at pH 4.0 (%), % relative to total peak area ([2]; pH 4.0)
CC[C@H](C)[C@@H]1NC(=O)[C@H](CCCNC(=N)N)NC(=O)[C@H](CC(=O)O)NC(=O)[C@H](CC(C)C)NC(=O)[C@@H]2CCCN2C(=O)[C@H](CC(C)C)NC(=O)CNC(=O)[C@H](Cc2ccccc2)NC(=O)[C@@H](NC(=O)CNC(=O)[C@H](CCC(N)=O)NC(=O)[C@H](CO)NC(=O)CNC(=O)CNC(=O)[C@H](CCCCN)NC(=O)[C@H](Cc2c[nH]cn2)NC(=O)[C@H](CCC(N)=O)NC(=O)[C@H](C)NC(=O)CNC(=O)[C@H](CCC(=O)O)NC(=O)[C@H](Cc2ccc(O)cc2)NC(=O)[C@H](CCCCN)NC(=O)[C@H](CCCNC(=N)N)NC(=O)[C@H](C)NC(=O)COCCOCCNC(=O)COCCOCCNC(=O)COCCOCCNC(=O)COCCOCCNC(=O)CC[C@H](NC(=O)CC[C@H](NC(=O)CCCCCCCCCCCCCCCCC(=O)O)C(=O)O)C(=O)O)CSSC[C@@H](C(=O)O)NC(=O)CNC(=O)[C@H](CC(C)C)NC(=O)CNC(=O)[C@H](CO)NC(=O)[C@H](CC(C)C)NC(=O)[C@H](CO)NC(=O)CNC1=O [compound 1432] ({C18 diacid-γGlu-γGlu-AEEA-AEEA-AEEA-AEEA}-ARKYEGAQHKGGSQGCFGLPLDRIGSLSGLGC-OH; disulfide 16-32)	26.0%	2.89%	
CC[C@H](C)[C@@H]1NC(=O)[C@H](CCCNC(=N)N)NC(=O)[C@H](CC(=O)O)NC(=O)[C@H](CC(C)C)NC(=O)[C@@H]2CCCN2C(=O)[C@H](CC(C)C)NC(=O)CNC(=O)[C@H](Cc2ccccc2)NC(=O)[C@@H](NC(=O)CNC(=O)[C@H](CCC(N)=O)NC(=O)[C@H](CO)NC(=O)CNC(=O)CNC(=O)[C@H](CCCCN)NC(=O)[C@H](CCCCN)NC(=O)[C@H](CCC(N)=O)NC(=O)[C@H](C)NC(=O)CNC(=O)[C@H](Cc2c[nH]cn2)NC(=O)[C@H](Cc2ccc(O)cc2)NC(=O)COCCOCCNC(=O)COCCOCCNC(=O)COCCOCCNC(=O)COCCOCCNC(=O)CC[C@H](NC(=O)CC[C@H](NC(=O)CCCCCCCCCCCCCCCCC(=O)O)C(=O)O)C(=O)O)CSSC[C@@H](C(=O)O)NC(=O)CNC(=O)[C@H](CC(C)C)NC(=O)CNC(=O)[C@H](CO)NC(=O)[C@H](CC(C)C)NC(=O)[C@H](CO)NC(=O)CNC1=O [compound 1434] ({C18 diacid-γGlu-γGlu-AEEA-AEEA-AEEA-AEEA}-YHGAQKKGGSQGCFGLPLDRIGSLSGLGC-OH; disulfide 13-29)	29.0%	3.2%	
CC[C@H](C)[C@@H]1NC(=O)[C@H](CCCNC(=N)N)NC(=O)[C@H](CC(=O)O)NC(=O)[C@H](CC(C)C)NC(=O)[C@@H]2CCCN2C(=O)[C@H](CC(C)C)NC(=O)CNC(=O)[C@H](Cc2ccccc2)NC(=O)[C@@H](NC(=O)CNC(=O)[C@H](CCC(N)=O)NC(=O)[C@H](CO)NC(=O)[C@H](CC(C)C)NC(=O)CNC(=O)[C@H](CCCCN)NC(=O)[C@H](CCCCN)NC(=O)[C@H](CCC(N)=O)NC(=O)[C@H](C)NC(=O)CNC(=O)[C@H](CCCCN)NC(=O)[C@H](Cc2ccc(O)cc2)NC(=O)[C@H](CCCCN)NC(=O)[C@H](CCCNC(=N)N)NC(=O)[C@H](C)NC(=O)COCCOCCNC(=O)COCCOCCNC(=O)CC[C@H](NC(=O)CC[C@H](NC(=O)CC[C@H](NC(=O)CC[C@H](NC(=O)CC[C@H](NC(=O)CCCCCCCCCCCCCCCCC(=O)O)C(=O)O)C(=O)O)C(=O)O)C(=O)O)C(=O)O)CSSC[C@@H](C(=O)O)NC(=O)CNC(=O)[C@H](CC(C)C)NC(=O)CNC(=O)[C@H](CO)NC(=O)[C@H](CC(C)C)NC(=O)[C@H](CO)NC(=O)CNC1=O [compound 1453] ({C18 diacid-γGlu-γGlu-γGlu-γGlu-γGlu-AEEA-AEEA}-ARKYKGAQKKGLSQGCFGLPLDRIGSLSGLGC-OH; disulfide 16-32)	33.5%	3.94%	
CC[C@H](C)[C@@H]1NC(=O)[C@H](CCCNC(=N)N)NC(=O)[C@H](CC(=O)O)NC(=O)[C@H](CC(C)C)NC(=O)[C@@H]2CCCN2C(=O)[C@H](CC(C)C)NC(=O)CNC(=O)[C@H](Cc2ccccc2)NC(=O)[C@@H](NC(=O)CNC(=O)[C@H](CCC(N)=O)NC(=O)[C@H](CO)NC(=O)[C@H](CO)NC(=O)CNC(=O)[C@H](CCCCN)NC(=O)[C@H](CCCCN)NC(=O)[C@H](CCC(N)=O)NC(=O)[C@H](C)NC(=O)CNC(=O)[C@@H]2CCCN2C(=O)[C@H](C)NC(=O)[C@H](CCC(N)=O)NC(=O)CNC(=O)[C@@H]2CCCN2C(=O)[C@H](C)NC(=O)[C@H](CCC(N)=O)NC(=O)CNC(=O)[C@@H]2CCCN2C(=O)[C@H](C)NC(=O)[C@H](CCC(N)=O)NC(=O)CNC(=O)COCCOCCNC(=O)COCCOCCNC(=O)CC[C@H](NC(=O)CCCCCCCCCCCCCCCCC(=O)O)C(=O)O)CSSC[C@@H](C(=O)O)NC(=O)CNC(=O)[C@H](CC(C)C)NC(=O)CNC(=O)[C@H](CO)NC(=O)[C@H](CC(C)C)NC(=O)[C@H](CO)NC(=O)CNC1=O [compound 1457] ({C18 diacid-γGlu-AEEA-AEEA}-GQAPGQAPGQAPGAQKKGSSQGCFGLPLDRIGSLSGLGC-OH; disulfide 23-39)	79.4%	3.24%	
CC[C@H](C)[C@@H]1NC(=O)[C@H](CCCNC(=N)N)NC(=O)[C@H](CC(=O)O)NC(=O)[C@H](CC(C)C)NC(=O)[C@@H]2CCCN2C(=O)[C@H](CC(C)C)NC(=O)CNC(=O)[C@H](Cc2ccccc2)NC(=O)[C@@H](NC(=O)CNC(=O)[C@H](CCCCN)NC(=O)[C@H](CO)NC(=O)[C@H](CC(C)C)NC(=O)CNC(=O)[C@H](CCCCN)NC(=O)[C@H](CCCCN)NC(=O)[C@H](CCC(N)=O)NC(=O)[C@H](C)NC(=O)CNC(=O)[C@H](CCCCN)NC(=O)[C@H](Cc2ccc(O)cc2)NC(=O)[C@H](CCCCN)NC(=O)[C@H](CCCNC(=N)N)NC(=O)[C@H](C)NC(=O)COCCOCCNC(=O)COCCOCCNC(=O)CC[C@H](NC(=O)CC[C@H](NC(=O)CC[C@H](NC(=O)CC[C@H](NC(=O)CC[C@H](NC(=O)CCCCCCCCCCCCCCCCC(=O)O)C(=O)O)C(=O)O)C(=O)O)C(=O)O)C(=O)O)CSSC[C@@H](C(=O)O)NC(=O)CNC(=O)[C@H](CC(C)C)NC(=O)CNC(=O)[C@H](CO)NC(=O)[C@H](CC(C)C)NC(=O)[C@H](CO)NC(=O)CNC1=O [compound 1470] ({C18 diacid-γGlu-γGlu-γGlu-γGlu-γGlu-AEEA-AEEA}-ARKYKGAQKKGLSKGCFGLPLDRIGSLSGLGC-OH; disulfide 16-32)	23.9%		1.75%
